Source: paper PMC8882856, “The affinity and selectivity of α‐adrenoceptor antagonists, antidepressants and antipsychotics for the human α2A, α2B, and α2C‐adrenoceptors and comparison with human α1 and β‐adrenoceptors” (Pharmacology Research & Perspectives, 2022)

Target: human β2‐adrenoceptor (Homo sapiens, UniProt P07550)
Assay: not given
Assay type: binding
Settings: ^3H‐CGP12177 whole cell binding; log values, mean ± s.e.mean; ^app = apparent KD; 'no binding to' = log top concentration

Chain of human β2‐adrenoceptor (P07550 whole entry): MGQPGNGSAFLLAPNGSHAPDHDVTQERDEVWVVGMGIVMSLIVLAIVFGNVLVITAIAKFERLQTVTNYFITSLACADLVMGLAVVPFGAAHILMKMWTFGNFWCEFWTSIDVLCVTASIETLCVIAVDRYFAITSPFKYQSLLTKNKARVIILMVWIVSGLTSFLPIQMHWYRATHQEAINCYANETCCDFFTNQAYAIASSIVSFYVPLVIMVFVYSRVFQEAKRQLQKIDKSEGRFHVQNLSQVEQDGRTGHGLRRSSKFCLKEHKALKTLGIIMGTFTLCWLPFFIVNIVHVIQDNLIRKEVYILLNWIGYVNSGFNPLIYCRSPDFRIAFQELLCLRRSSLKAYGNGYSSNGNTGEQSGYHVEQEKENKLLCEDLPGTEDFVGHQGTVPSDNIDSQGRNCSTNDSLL

Row | SMILES | Log KD β2
1 | COc1cccc2c1CCC[C@H]2CN(C)CCc1ccc2ccoc2c1.CS(=O)(=O)O [A80426] | −5.88 ± 0.04
2 | CN1CCN(c2ccc(Nc3c4ccccc4nc4ccccc34)cc2)CC1 [JP1302] | −5.58 ± 0.08
3 | Cc1c[nH]c(=O)n(CCCN2CCN(c3ccccc3OCC(F)(F)F)CC2)c1=O [RS100329] | −4.77 ± 0.07
4 | CCn1ccnc1CC1COc2ccccc2O1 (stereo not drawn) [imiloxan] | no binding to −3

Same assay, conditions: ^3H‐CGP12177 whole cell binding; log values, mean ± s.e.mean; ^app = apparent KD; 'no binding to' = log top concentration; read-out: Log KD β2 (converted)

Row | SMILES | Kd [µM]
5 | O=C(NC1CCN(CCc2c[nH]c3ccccc23)CC1)c1ccccc1 [indoramin] | 5.37
6 | COc1cc2nc(N3CCN(C(=O)c4ccco4)CC3)nc(N)c2cc1OC [prazosin] | 7.94

Same assay, conditions: given as log KD (negative values); 3H-CGP12177 whole cell binding, CHO cells; mean ± s.e.mean

Row | SMILES | Log KD β2
7 | CCn1ccnc1CC1COc2ccccc2O1 (stereo not drawn) [imiloxan] | no binding -3

Same assay, conditions: this study; read-out: β2‐adrenoceptor affinity

Row | SMILES | Kd [µM]
8 | CN1CCc2cccc(Cl)c2CC1 [SKF86466] | 0.25
9 | C[C@H](Cc1cc2c(c(C(N)=O)c1)N(CCCO)CC2)NCCOc1ccccc1OCC(F)(F)F [silodosin] | ~0.03
10 | Cc1ccc(Sc2ccccc2N2CCNCC2)c(C)c1 [vortioxetine] | 0.178

Target: T1, human α2A‐adrenoceptor (Homo sapiens, UniProt P08913)
T1 sequence (P08913 1-465): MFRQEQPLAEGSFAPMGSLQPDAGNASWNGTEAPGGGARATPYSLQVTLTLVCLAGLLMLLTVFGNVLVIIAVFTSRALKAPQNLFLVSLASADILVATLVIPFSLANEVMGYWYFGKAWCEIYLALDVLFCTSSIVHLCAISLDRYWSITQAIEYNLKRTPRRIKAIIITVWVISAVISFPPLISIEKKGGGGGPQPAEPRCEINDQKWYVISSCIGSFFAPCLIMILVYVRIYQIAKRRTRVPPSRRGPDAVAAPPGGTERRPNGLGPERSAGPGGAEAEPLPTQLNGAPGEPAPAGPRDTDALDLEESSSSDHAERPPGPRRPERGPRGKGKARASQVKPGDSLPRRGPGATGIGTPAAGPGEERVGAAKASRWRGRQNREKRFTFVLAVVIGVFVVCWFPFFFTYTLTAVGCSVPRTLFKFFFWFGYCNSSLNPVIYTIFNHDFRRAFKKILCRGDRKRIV
Assay: not given
Settings: not given

Row | SMILES | Kd [µM]
11 | Cc1c[nH]c(=O)n(CCCN2CCN(c3ccccc3OCC(F)(F)F)CC2)c1=O [RS100329] | 0.1

Target: T2, human α2B‐adrenoceptor (Homo sapiens, UniProt P18089)
T2 sequence (P18089 1-450): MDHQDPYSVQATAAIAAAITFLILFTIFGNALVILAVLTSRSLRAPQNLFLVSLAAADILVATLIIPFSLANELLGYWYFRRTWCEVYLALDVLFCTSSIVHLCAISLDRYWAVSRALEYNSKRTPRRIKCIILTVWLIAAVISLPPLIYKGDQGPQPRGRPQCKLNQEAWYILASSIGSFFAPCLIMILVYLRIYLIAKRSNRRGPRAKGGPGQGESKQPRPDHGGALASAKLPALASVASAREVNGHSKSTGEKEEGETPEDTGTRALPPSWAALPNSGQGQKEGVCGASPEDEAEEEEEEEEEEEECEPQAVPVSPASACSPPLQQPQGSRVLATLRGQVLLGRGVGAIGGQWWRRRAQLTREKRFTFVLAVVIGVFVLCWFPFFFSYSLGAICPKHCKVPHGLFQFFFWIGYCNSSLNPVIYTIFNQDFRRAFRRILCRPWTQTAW
Assay: not given
Settings: not given

Row | SMILES | Kd [µM]
12 | COc1cccc2c1CCC[C@H]2CN(C)CCc1ccc2ccoc2c1.CS(=O)(=O)O [A80426] | 0.302
13 | Cc1c[nH]c(=O)n(CCCN2CCN(c3ccccc3OCC(F)(F)F)CC2)c1=O [RS100329] | 0.339

Target: T3, human α2C‐adrenoceptor (Homo sapiens, UniProt P18825)
T3 sequence (P18825 1-462): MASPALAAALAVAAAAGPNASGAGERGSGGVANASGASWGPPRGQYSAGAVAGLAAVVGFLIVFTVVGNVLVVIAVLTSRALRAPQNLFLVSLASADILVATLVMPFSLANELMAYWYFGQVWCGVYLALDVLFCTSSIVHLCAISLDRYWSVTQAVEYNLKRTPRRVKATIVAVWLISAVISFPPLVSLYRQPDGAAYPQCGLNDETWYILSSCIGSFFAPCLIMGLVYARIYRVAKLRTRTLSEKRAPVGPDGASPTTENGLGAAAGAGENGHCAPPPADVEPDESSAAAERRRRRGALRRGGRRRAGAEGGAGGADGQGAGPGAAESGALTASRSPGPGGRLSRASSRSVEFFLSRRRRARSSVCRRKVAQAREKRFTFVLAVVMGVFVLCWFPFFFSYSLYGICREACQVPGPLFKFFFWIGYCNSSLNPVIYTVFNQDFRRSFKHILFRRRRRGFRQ
Assay: not given
Settings: not given

Row | SMILES | Kd [µM]
14 | COc1cccc2c1CCC[C@H]2CN(C)CCc1ccc2ccoc2c1.CS(=O)(=O)O [A80426] | 0.0347
15 | Cc1c[nH]c(=O)n(CCCN2CCN(c3ccccc3OCC(F)(F)F)CC2)c1=O [RS100329] | 0.0151

Target: T4, human β1‐adrenoceptor (Homo sapiens, UniProt P08588)
Assay: not given
Settings: not given

T4 sequence (P08588 whole entry): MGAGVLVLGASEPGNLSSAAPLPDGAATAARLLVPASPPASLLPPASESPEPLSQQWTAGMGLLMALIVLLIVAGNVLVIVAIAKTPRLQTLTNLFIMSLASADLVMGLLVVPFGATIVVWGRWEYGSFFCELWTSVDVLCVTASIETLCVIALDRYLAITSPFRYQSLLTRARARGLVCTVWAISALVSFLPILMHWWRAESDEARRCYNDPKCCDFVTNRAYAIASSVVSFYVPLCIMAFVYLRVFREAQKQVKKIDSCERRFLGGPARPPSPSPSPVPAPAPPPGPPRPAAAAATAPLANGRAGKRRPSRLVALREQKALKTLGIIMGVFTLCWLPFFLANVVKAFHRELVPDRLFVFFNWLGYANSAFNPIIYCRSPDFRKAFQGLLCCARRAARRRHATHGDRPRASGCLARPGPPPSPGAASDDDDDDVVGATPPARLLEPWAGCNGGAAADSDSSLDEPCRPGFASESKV

Row | SMILES | IC50 (log) β1, IC50>top concentration used
16 | CN1CCN(c2ccc(Nc3c4ccccc4nc4ccccc34)cc2)CC1 [JP1302] | IC50>−4

Same assay, conditions: ^3H‐CGP12177; log value

Row | SMILES | IC50 (log) β1, IC50>top concentration used
17 | Cc1c[nH]c(=O)n(CCCN2CCN(c3ccccc3OCC(F)(F)F)CC2)c1=O [RS100329] | IC50>−3

Same assay, conditions: ^3H‐CGP12177 whole cell binding; log values, mean ± s.e.mean; ^app = apparent KD; 'no binding to' = log top concentration

Row | SMILES | Log KD β1
18 | COc1cc2nc(N3CCN(C(=O)c4ccco4)CC3)nc(N)c2cc1OC [prazosin] | No binding to −4

Same assay, conditions: given as log KD (negative values); 3H-CGP12177 whole cell binding, CHO cells; mean ± s.e.mean

Row | SMILES | Log KD β1
19 | COc1cc2nc(N3CCN(C(=O)c4ccco4)CC3)nc(N)c2cc1OC [prazosin] | No binding to -4

Target: human α1A‐adrenoceptor
Assay: not given
Parameters: method as in PMID 32608144
Settings: identical whole cell method; ref [33]; read-out: α1A‐adrenoceptor affinity; cited from earlier work

Row | SMILES | Kd [µM]
20 | CN1CCN(c2ccc(Nc3c4ccccc4nc4ccccc34)cc2)CC1 [JP1302] | 0.617
21 | C[C@H](Cc1cc2c(c(C(N)=O)c1)N(CCCO)CC2)NCCOc1ccccc1OCC(F)(F)F [silodosin] | 0.00025

Target: human α2A‐adrenoceptors
Assay: not given
Settings: ref [6]; read-out: affinity at human α2A‐adrenoceptors; cited from earlier work

Row | SMILES | Kd [µM]
22 | COc1cc2nc(N3CCN(C(=O)c4ccco4)CC3)nc(N)c2cc1OC [prazosin] | 16

Same assay, conditions: ref [21], [28]; read-out: affinity at human α2A‐adrenoceptors; cited from earlier work

Row | SMILES | Kd [µM]
23 | COc1cc2nc(N3CCN(C(=O)c4ccco4)CC3)nc(N)c2cc1OC [prazosin] | 0.3

Same assay, conditions: ref [23]; read-out: human α2A‐affinity; cited from earlier work

Row | SMILES | Kd [µM]
24 | CN1CCc2cccc(Cl)c2CC1 [SKF86466] | 0.013

Same assay, conditions: ref [51]; read-out: affinity at human α2A receptors; cited from earlier work

Row | SMILES | Kd [µM]
25 | CN1CCN2c3ncccc3Cc3ccccc3C2C1 (stereo not drawn) [mirtazepine] | 0.079 to 0.126

Target: T1, human α2A‐adrenoceptor
Assay: cell-based
Settings: not given

Row | SMILES | Kd [µM]
26 | CCn1ccnc1CC1COc2ccccc2O1 (stereo not drawn) [imiloxan] | 1.32
27 | O=C(NC1CCN(CCc2c[nH]c3ccccc23)CC1)c1ccccc1 [indoramin] | 7.41
28 | C[C@H](Cc1cc2c(c(C(N)=O)c1)N(CCCO)CC2)NCCOc1ccccc1OCC(F)(F)F [silodosin] | 3.24
29 | Cc1ccc(Sc2ccccc2N2CCNCC2)c(C)c1 [vortioxetine] | 2.34

Target: T2, human α2B‐adrenoceptor
Assay: cell-based
Settings: not given

Row | SMILES | Kd [µM]
30 | CCn1ccnc1CC1COc2ccccc2O1 (stereo not drawn) [imiloxan] | 0.331
31 | O=C(NC1CCN(CCc2c[nH]c3ccccc23)CC1)c1ccccc1 [indoramin] | 3.47
32 | Cc1ccc(Sc2ccccc2N2CCNCC2)c(C)c1 [vortioxetine] | 4.79

Target: T3, human α2C‐adrenoceptor
Assay: cell-based
Settings: not given

Row | SMILES | Kd [µM]
33 | CCn1ccnc1CC1COc2ccccc2O1 (stereo not drawn) [imiloxan] | 0.537
34 | O=C(NC1CCN(CCc2c[nH]c3ccccc23)CC1)c1ccccc1 [indoramin] | 1.58
35 | C[C@H](Cc1cc2c(c(C(N)=O)c1)N(CCCO)CC2)NCCOc1ccccc1OCC(F)(F)F [silodosin] | 0.759
36 | Cc1ccc(Sc2ccccc2N2CCNCC2)c(C)c1 [vortioxetine] | 1.45

Target: T4, human β1‐adrenoceptor
Assay: cell-based
Settings: not given

Row | SMILES | Kd [µM] | IC50 [µM]
37 | CN1CCc2cccc(Cl)c2CC1 [SKF86466] | 1.2 | –
38 | CCn1ccnc1CC1COc2ccccc2O1 (stereo not drawn) [imiloxan] | – | ~1000
39 | O=C(NC1CCN(CCc2c[nH]c3ccccc23)CC1)c1ccccc1 [indoramin] | 18.6 | –
40 | C[C@H](Cc1cc2c(c(C(N)=O)c1)N(CCCO)CC2)NCCOc1ccccc1OCC(F)(F)F [silodosin] | – | > 10
41 | Cc1ccc(Sc2ccccc2N2CCNCC2)c(C)c1 [vortioxetine] | 0.427 | –

Target: T1, human α2A‐adrenoceptor
Assay: ^3H‐rauwolscine whole cell competition binding, CHO‐α2A cells
Settings: not given

Row | SMILES | Kd [µM]
42 | CN1CCc2cccc(Cl)c2CC1 [SKF86466] | 0.513

Same assay, conditions: ratio of KD values

Row | SMILES | Selectivity ratio α2A vs α2B (higher affinity for α2A)
43 | Cc1c[nH]c(=O)n(CCCN2CCN(c3ccccc3OCC(F)(F)F)CC2)c1=O [RS100329] | 3.4
44 | Cc1ccc(Sc2ccccc2N2CCNCC2)c(C)c1 [vortioxetine] | 2.0

Target: T2, human α2B‐adrenoceptor
Assay: ^3H‐rauwolscine whole cell competition binding, CHO‐α2B cells
Settings: not given

Row | SMILES | Log KD α2B | IC50 [µM]
45 | CN1CCc2cccc(Cl)c2CC1 [SKF86466] | −6.17 ± 0.047 | –
46 | C[C@H](Cc1cc2c(c(C(N)=O)c1)N(CCCO)CC2)NCCOc1ccccc1OCC(F)(F)F [silodosin] | – | > 10

Same assay, conditions: ratio of KD values

Row | SMILES | Selectivity ratio α2A vs α2B (higher affinity for α2B) | Selectivity ratio α2B vs α2C (higher affinity for α2B)
47 | CCn1ccnc1CC1COc2ccccc2O1 (stereo not drawn) [imiloxan] | 4.0 | 1.6
48 | O=C(NC1CCN(CCc2c[nH]c3ccccc23)CC1)c1ccccc1 [indoramin] | 2.1 | –

Target: T3, human α2C‐adrenoceptor
Assay: ^3H‐rauwolscine whole cell competition binding, CHO‐α2C cells
Settings: not given

Row | SMILES | α1A‐adrenoceptor affinity less than α2C affinity [fold]
49 | CN1CCN(c2ccc(Nc3c4ccccc4nc4ccccc34)cc2)CC1 [JP1302] | 5

Same assay, conditions: ratio of KD values

Row | SMILES | Selectivity ratio α2A vs α2C (higher affinity for α2C) | Selectivity ratio α2B vs α2C (higher affinity for α2C)
50 | Cc1c[nH]c(=O)n(CCCN2CCN(c3ccccc3OCC(F)(F)F)CC2)c1=O [RS100329] | 6.6 | 22.4
51 | CCn1ccnc1CC1COc2ccccc2O1 (stereo not drawn) [imiloxan] | 2.5 | –
52 | O=C(NC1CCN(CCc2c[nH]c3ccccc23)CC1)c1ccccc1 [indoramin] | 4.7 | 2.2
53 | Cc1ccc(Sc2ccccc2N2CCNCC2)c(C)c1 [vortioxetine] | 1.6 | 3.3
